This note sets out measurements from patent US20070072897A1, “Phenylaminopropanol derivatives and methods of their use” (Wyeth, priority 2005, published 2007).

Structures can show the parent of a compound that is named as a salt.

One experiment concerns the target T1, human hNET (Homo sapiens, UniProt P23975).
T1 construct: expressed in transfected cells; host or cells: MDCK (MDCK-Net6)
The experiment can be described thus: Norepinephrine (NE) uptake assay in MDCK-Net6 cells. In kind it is cell-based. To be noted: [3H]NE uptake; for EC50: MDCK-Net6 cells stably transfected with hNET; for inhibition at 1 µM: MDCK-Net6 cells, read-out: hNET Percentage inhibition at 1 μM. The protocol:
Cells were plated at 300,000/T75 flask and cells were split twice weekly. […] Cells were plated at 250,000 cells/T75 flask and split twice weekly.
Norepinephrine (NE) Uptake Assay
On day 1, cells were plated at 3,000 cells/well in growth medium and maintained in a cell incubator (37° C., 5% CO2). On day 2, growth medium was replaced with 200 μl of assay buffer (25 mM HEPES; 120 mM NaCl; 5 mM KCl; 2.5 mM CaCl2; 1.2 mM MgSO4; 2 mg/ml glucose (pH 7.4, 37° C.)) containing 0.2 mg/ml ascorbic acid and 10 μM pargyline. Plates containing cells with 200 μl of assay buffer were equilibrated for 10 minutes at 37° C. prior to addition of compounds. A stock solution of desipramine was prepared in DMSO (10 mM) and delivered to triplicate wells containing cells for a final test concentration of 1 μM. Data from these wells were used to define non-specific NE uptake (minimum NE uptake). Test compounds were prepared in DMSO (10 mM) and diluted in assay buffer according to test range (1 to 10,000 nM). Twenty-five microliters of assay buffer (maximum NE uptake) or test compound were added directly to triplicate wells containing cells in 200 μl of assay buffer. The cells in assay buffer with test compounds were incubated for 20 minutes at 37° C. […] The reaction was terminated by decanting the supernatant from the plate. The plates containing cells were washed twice with 200 μl assay buffer (37° C.) to remove free radioligand. The plates were then inverted, left to dry for 2 minutes, then reinverted and air-dried for an additional 10 minutes. […] After cell lysis, 75 μl of scintillation cocktail was added to each well and the plates were sealed with film tape. The plates were returned to the shake table and vigorously shaken for a minimum of 10 minutes to ensure adequate partitioning of organic and aqueous solutions. The plates were counted in a Wallac Microbeta counter (PerkinElmer) to collect the raw cpm data.
For each experiment, a data stream of cpm values collected from the Wallac Microbeta counter was downloaded to a Microsoft Excel statistical application program. Calculations of EC50 values were made using the transformed-both-sides logistic dose response program written by Wyeth Biometrics Department.

A further experiment concerns the target T2, human 5-HT2A receptor (Homo sapiens, UniProt P28223).
T2 construct: expressed in transfected cells; host or cells: CHO
Description: 5-HT2A FLIPR assay (calcium response to DOI) in CHO cells. To be noted: for IC50: antagonist inhibition of 3 nM DOI stimulation, CHO cells, FLIPR; for inhibition at 1 µM: CHO, read-out: 5-HT2A Percentage inhibition at 1 μM. The class given is cell-based. The protocol: Cells are washed with PBS without Ca^2+ and 3 mL Trypsin is added to dissociate cells. After 3 minute incubation, 7 mL Trypsin Neutralizing Solution is added. Cells are then aspirated from flask and mixed in a 50 mL conical tube. 10 μL sample is used to count cells on a hemacytometer. […] Two 96-well drug plates are prepared for each cell plate. Plate 1 will contain compounds to be tested and plate 2 will contain the agonist DOI (3 nM) to activate a calcium response. Specific details of compound preparation are listed below. […] Outside wells are not used due to an edge effect seen in these cells. The reference compounds DOI and 5-HT are used as standard 5HT agonists. […] Standards for plate one are Vehicle, 1 μM DOI, and 3 nM MDL. […] On the day of the assay, test compound solutions of appropriate concentrations are diluted in assay buffer as described for single concentration testing. This procedure is followed to ensure that the solvent concentration is consistent across dilutions. The typical concentration testing range of compounds is 10^−10—10^−5 M in half log or full log increments. A 10 μM DOI stock is diluted to 60 nM and added to the respective wells. The pipeting station of the FLIPR will make an additional 20-fold dilution for a final concentration of 3 nM. Standards for this plate include Vehicle and 3 nM DOI. Contents of dye vial (Molecular Devices #R8090) are dissolved in 100 mL of 1×HBSS supplemented with 20 mM HEPES. Aliquots can be frozen at −20° C. for up to one week for future use. On the day of assay, dye is thawed and diluted to half concentration. […] Cells are allowed to adhere for 24 hours in 96-well plates. […] Cell, compound and DOI plates are loaded into the FLIPR machine. The baseline fluorescence level is read once every second for 1 minute. Compound (10 μL) is transferred from the compound plate to the cells and the fluorescence level recorded every 6 seconds for 2 minutes to determine any agonist activity. Baseline fluorescence is recorded again every second for 10 seconds. For antagonist determination, 10 μL of 3 nM DOI is transferred from the DOI plate to the cells and the fluorescence level recorded every 6 seconds for 5 minutes. The pipetting unit of the FLIPR machine completes all transfers. […] The data are log transformed prior to analysis.

T2 sequence (P28223 whole entry): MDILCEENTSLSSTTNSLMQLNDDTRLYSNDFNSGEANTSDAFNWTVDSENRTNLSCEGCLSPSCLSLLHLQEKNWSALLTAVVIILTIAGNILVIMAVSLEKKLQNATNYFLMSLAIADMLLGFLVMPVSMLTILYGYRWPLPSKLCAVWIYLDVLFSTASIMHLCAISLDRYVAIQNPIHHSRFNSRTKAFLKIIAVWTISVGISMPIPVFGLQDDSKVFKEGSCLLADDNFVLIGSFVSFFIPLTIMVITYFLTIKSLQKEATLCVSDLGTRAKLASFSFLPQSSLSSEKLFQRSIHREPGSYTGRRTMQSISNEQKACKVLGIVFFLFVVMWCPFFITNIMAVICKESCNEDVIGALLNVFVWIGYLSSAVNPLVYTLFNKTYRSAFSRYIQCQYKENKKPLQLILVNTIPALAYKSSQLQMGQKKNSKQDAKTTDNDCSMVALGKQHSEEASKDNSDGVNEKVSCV
T1 sequence (P23975 whole entry): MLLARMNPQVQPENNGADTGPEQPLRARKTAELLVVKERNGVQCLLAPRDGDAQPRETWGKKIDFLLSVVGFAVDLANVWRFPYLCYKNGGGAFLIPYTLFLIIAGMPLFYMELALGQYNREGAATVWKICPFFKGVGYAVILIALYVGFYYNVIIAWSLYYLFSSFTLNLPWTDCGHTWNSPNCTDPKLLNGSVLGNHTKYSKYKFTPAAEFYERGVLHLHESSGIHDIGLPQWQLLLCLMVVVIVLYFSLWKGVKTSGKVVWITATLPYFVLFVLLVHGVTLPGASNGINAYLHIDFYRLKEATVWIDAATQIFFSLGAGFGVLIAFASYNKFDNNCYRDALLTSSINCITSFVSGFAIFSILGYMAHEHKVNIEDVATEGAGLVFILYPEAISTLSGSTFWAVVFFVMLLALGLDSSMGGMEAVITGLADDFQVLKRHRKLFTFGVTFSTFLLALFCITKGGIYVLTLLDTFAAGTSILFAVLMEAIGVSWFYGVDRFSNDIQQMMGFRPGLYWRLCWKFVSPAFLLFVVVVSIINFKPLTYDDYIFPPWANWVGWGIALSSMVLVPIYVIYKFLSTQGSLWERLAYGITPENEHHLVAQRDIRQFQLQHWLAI

Take `CNC[C@@H](O)[C@H](c1ccccc1)n1ccc2cc(OCc3ccccc3OC)ccc21` [Example 5, (1S,2R)-1-{5-[(2-methoxybenzyl)oxy]-1H-indol-1-yl}-3-(methylamino)-1-phenylpropan-2-ol hydrochloride]: the EC50 (usually the midpoint of the concentration-response curve) on human hNET amounted to 0.196 µM. In addition, the IC50 (commonly the concentration needed to halve the response being measured) at human 5-HT2A receptor stood at 0.678 µM.

In the case of `CNC[C@@H](O)[C@H](c1ccccc1)n1ccc2cc(OCc3cccc(OC)c3)ccc21` [Example 6, (1S,2R)-1-{5-[(3-methoxybenzyl)oxy]-1H-indol-1-yl}-3-(methylamino)-1-phenylpropan-2-ol hydrochloride], at human hNET, the midpoint of the response, the EC50, lay at 0.017 µM. At human 5-HT2A receptor, the half-maximal inhibitory concentration (IC50) is 0.888 µM.

`CNC[C@@H](O)[C@H](c1ccccc1)n1ccc2cc(OCc3ccc(OC)cc3)ccc21` [Example 7, (1S,2R)-1-{5-[(4-methoxybenzyl)oxy]-1H-indol-1-yl}-3-(methylamino)-1-phenylpropan-2-ol hydrochloride] registered a concentration giving a half-maximal response (EC50) at human hNET of 0.032 µM. On human 5-HT2A receptor, the IC50 came to 0.281 µM.

Turning to `CNC[C@@H](O)[C@H](c1ccccc1)n1ccc2cc(OCc3ccccc3Cl)ccc21` [Example 8, (1S,2R)-1-{5-[(2-chlorobenzyl)oxy]-1H-indol-1-yl}-3-(methylamino)-1-phenylpropan-2-ol hydrochloride], the 50% effective concentration (EC50) at human hNET was found to be 0.147 µM. Further, the IC50 on human 5-HT2A receptor was found to be 0.658 µM.

At human hNET, `CNC[C@@H](O)[C@H](c1ccccc1)n1ccc2cc(OCc3cccc(Cl)c3)ccc21` [Example 9, (1S,2R)-1-{5-[(3-chlorobenzyl)oxy]-1H-indol-1-yl}-3-(methylamino)-1-phenylpropan-2-ol hydrochloride] registered an EC50 of 0.089 µM. Besides, the inhibition – broadly, the share of the control response that was lost under treatment – at 1 µM at human 5-HT2A receptor was 39%.

For `CNC[C@@H](O)[C@H](c1ccccc1)n1ccc2cc(OCc3ccc(Cl)cc3)ccc21` [Example 10, (1S,2R)-1-{5-[(4-chlorobenzyl)oxy]-1H-indol-1-yl}-3-(methylamino)-1-phenylpropan-2-ol hydrochloride], the half-maximal effective concentration (EC50) on human hNET was 0.067 µM. Also, the IC50 at human 5-HT2A receptor amounted to 0.712 µM.

On human hNET, `CNC[C@@H](O)[C@H](c1ccccc1)n1ccc2cc(OCc3ccccc3F)ccc21` [Example 11, (1S,2R)-1-{5-[(2-fluorobenzyl)oxy]-1H-indol-1-yl}-3-(methylamino)-1-phenylpropan-2-ol hydrochloride] showed a concentration for a half-maximal effect (EC50) of 0.052 µM. Also, the half-maximal inhibitory concentration (IC50) at human 5-HT2A receptor is 1.26 µM.

On to `CNC[C@@H](O)[C@H](c1ccccc1)n1ccc2cc(OCc3cccc(F)c3)ccc21` [Example 12, (1S,2R)-1-{5-[(3-fluorobenzyl)oxy]-1H-indol-1-yl}-3-(methylamino)-1-phenylpropan-2-ol hydrochloride], for which the response on human hNET was half-maximal at 0.036 µM (EC50). Moreover, the IC50 at human 5-HT2A receptor worked out at 0.979 µM.

Regarding `CNC[C@@H](O)[C@H](c1ccccc1)n1ccc2cc(OCc3ccc(F)cc3)ccc21` [Example 13, (1S,2R)-1-{5-[(4-fluorobenzyl)oxy]-1H-indol-1-yl}-3-(methylamino)-1-phenylpropan-2-ol hydrochloride], the midpoint of the response on human hNET, the EC50, lay at 0.031 µM. For the same molecule, the half-inhibitory concentration (IC50) on human 5-HT2A receptor came to 0.468 µM.

In turn, `CNC[C@@H](O)[C@H](c1ccccc1)n1ccc2cc(OCc3ccccc3C)ccc21` [Example 14, (1S,2R)-3-(methylamino)-1-{5-[(2-methylbenzyl)oxy]-1H-indol-1-yl}-1-phenylpropan-2-ol hydrochloride] registered an EC50 on human hNET of 0.109 µM. Moreover, at human 5-HT2A receptor, the 50% inhibitory concentration (IC50) was found to be 0.442 µM.

For `CNC[C@@H](O)[C@H](c1ccccc1)n1ccc2cc(OCc3cccc(C)c3)ccc21` [Example 15, (1S,2R)-3-(methylamino)-1-{5-[(3-methylbenzyl)oxy]-1H-indol-1-yl}-1-phenylpropan-2-ol hydrochloride], the half-maximal effective concentration (EC50) at human hNET worked out at 0.088 µM. Moreover, the half-inhibitory concentration (IC50) on human 5-HT2A receptor was 0.809 µM.

`CNC[C@@H](O)[C@H](c1ccccc1)n1ccc2cc(OCc3ccc(C)cc3)ccc21` [Example 16, (1S,2R)-3-(methylamino)-1-{5-[(4-methylbenzyl)oxy]-1H-indol-1-yl}-1-phenylpropan-2-ol hydrochloride] yielded a 50% effective concentration (EC50) at human hNET of 0.037 µM. In addition, the IC50 on human 5-HT2A receptor is 4.12 µM.

On human hNET, `CNC[C@@H](O)[C@H](c1ccccc1)n1ccc2cc(OCCc3ccccc3)ccc21` [Example 18, (1S,2R)-3-(methylamino)-1-phenyl-1-[5-(2-phenylethoxy)-1H-indol-1-yl]propan-2-ol hydrochloride] showed an EC50 of 0.219 µM. The IC50 at human 5-HT2A receptor is 1.2 µM.

With `CNC[C@@H](O)[C@H](c1ccccc1)n1ccc2cc(Oc3ccccc3)ccc21` [Example 19, (1S,2R)-3-(methylamino)-1-[5-(phenoxy)-1H-indol-1-yl]-1-phenylpropan-2-ol hydrochloride], the inhibition at 1 µM at human hNET came to 27%; on human 5-HT2A receptor, 39%.

As for `CNC[C@@H](O)[C@H](c1ccccc1)n1ccc2c(Oc3ccccc3)cccc21` [Example 20, (1S,2R)-3-(methylamino)-1-[4-(phenoxy)-1H-indol-1-yl]-1-phenylpropan-2-ol hydrochloride], the response on human hNET was half-maximal at 0.227 µM (EC50). The inhibition at 1 µM at human 5-HT2A receptor is 30%.

As to `CNC[C@@H](O)[C@H](c1ccccc1)n1ccc2c(-c3ccccc3)cccc21` [Example 21, (1S,2R)-3-(methylamino)-1-phenyl-1-(4-phenyl-1H-indol-1-yl)propan-2-ol hydrochloride], the inhibition at 1 µM on human hNET was determined as 56%; at human 5-HT2A receptor, 27%.

The molecule `CNC[C@@H](O)[C@H](c1ccccc1)n1ccc2ccc(-c3ccccc3)cc21` [Example 22, (1S,2R)-3-(methylamino)-1-phenyl-1-(6-phenyl-1H-indol-1-yl)propan-2-ol hydrochloride] gave an EC50 on human hNET of 0.035 µM. The inhibition at 1 µM on human 5-HT2A receptor stood at 16%.

Turning to `CNC[C@@H](O)[C@H](c1ccccc1)n1ccc2cccc(-c3ccccc3)c21` [Example 23, (1S,2R)-3-(methylamino)-1-phenyl-1-(7-phenyl-1H-indol-1-yl)propan-2-ol hydrochloride], the inhibition at 1 µM at human hNET was 48%. Moreover, the half-maximal inhibitory concentration (IC50) on human 5-HT2A receptor is 2.6 µM.

For `CNC[C@@H](O)[C@H](c1cccc(F)c1)n1ccc2cc(OCc3ccccc3)ccc21` [Example 24, (1S,2R)-1-[5-(benzyloxy)-1H-indol-1-yl]-1-(3-fluorophenyl)-3-(methylamino)propan-2-ol hydrochloride], the EC50 on human hNET came out at 0.036 µM. Also, the inhibition at 1 µM on human 5-HT2A receptor came to 20%.

`CNC[C@@H](O)[C@H](c1ccccc1)N1CCc2cc(OCc3ccccc3)ccc21` [Example 26, (1S,2R)-1-[5-(benzyloxy)-2,3-dihydro-1H-indol-1-yl]-3-(methylamino)-1-phenylpropan-2-ol hydrochloride] gave an EC50 at human hNET of 0.045 µM. For the same molecule, the inhibition at 1 µM on human 5-HT2A receptor worked out at 23%.

`CNC[C@@H](O)[C@H](c1ccccc1)N1C(=O)C2(CCCCC2)c2cc(Cl)ccc21` [Example 27, 5′-chloro-1′-[(1S,2R)-2-hydroxy-3-(methylamino)-1-phenylpropyl]spiro[cyclohexane-1,3′-indol]-2′(1′H)-one hydrochloride]: the EC50 on human hNET worked out at 0.089 µM. Besides, the IC50 on human 5-HT2A receptor stood at 0.423 µM.
